Results reported in patent publication US6852731B2, “Antiviral compounds” (Pfizer, priority 2002, dated 2005).

melting point	Structure (SMILES)
154.9 to 155.5 °C	CN(Cc1sc2c(=O)c(C(=O)NCc3ccc(Cl)cc3)cn(C)c2c1COCC[Si](C)(C)C)CC(O)c1cnccn1 (stereo not drawn)
129 to 132 °C	COCCOCc1c(CN(C)CC(O)c2cccnc2)sc2c(=O)c(C(=O)NCc3ccc(Cl)cc3)cn(C)c12 (stereo not drawn) [Example 72, N-(4-Chlorobenzyl)-2-{[(2-hydroxy-2-pyridin-3-ylethyl)(methyl)amino]methyl}-3-[(2-methoxyethoxy)methyl]-4-methyl-7-oxo-4,7-dihydrothieno[3,2-b]pyridine-6-carboxamide]
135 to 138 °C	COCCOCc1c(CN(C)CC(O)c2cccc(OC)c2)sc2c(=O)c(C(=O)NCc3ccc(Cl)cc3)cn(C)c12 (stereo not drawn) [Example 73, N-(4-Chlorobenzyl)-2-{[[2-hydroxy-2-(3-methoxyphenyl)ethyl](methyl)amino]methyl}-3-[(2-methoxyethoxy)methyl]-4-methyl-7-oxo-4,7-dihydrothieno[3,2-b]pyridine-6-carboxamide]
146 to 147 °C	COCCOCc1c(CN(C)C[C@@H](O)c2ccco2)sc2c(=O)c(C(=O)NCc3ccc(Cl)cc3)cn(C)c12 [Example 74, N-(4-Chlorobenzyl)-2-{[[(2R)-2-(2-furyl)-2-hydroxyethyl](methyl)amino]methyl}-3-[(2-methoxyethoxy)methyl]-4-methyl-7-oxo-4,7-dihydrothieno[3,2-b]pyridine-6-carboxamide]
167 to 169 °C	COCCOCc1c(CN(C)CC(O)c2c[nH]c3ccccc23)sc2c(=O)c(C(=O)NCc3ccc(Cl)cc3)cn(C)c12 (stereo not drawn) [Example 75, N-(4-Chlorobenzyl)-2-{[[2-hydroxy-2-(1H-indol-3-yl)ethyl](methyl)amino]methyl}-3-[(2-methoxyethoxy)methyl]-4-methyl-7-oxo-4,7-dihydrothieno[3,2-b]pyridine-6-carboxamide]
150.5 to 152 °C	COCCOCc1c(CN(C)CC(O)c2ccccn2)sc2c(=O)c(C(=O)NCc3ccc(Cl)cc3)cn(C)c12 (stereo not drawn) [Example 76, N-(4-Chlorobenzyl)-2-{[(2-hydroxy-2-pyridin-2-ylethyl)(methyl)amino]methyl}-3-[(2-methoxyethoxy)methyl]-4-methyl-7-oxo-4,7-dihydrothieno[3,2-b]pyridine-6-carboxamide]
146.5 to 147.5 °C	COCCOCc1c(CN(C)CC(O)c2ncccn2)sc2c(=O)c(C(=O)NCc3ccc(Cl)cc3)cn(C)c12 (stereo not drawn) [Example 77, N-(4-Chlorobenzyl)-2-{[(2-hydroxy-2-pyrimidin-2-ylethyl)(methyl)amino]methyl}-3-[(2-methoxyethoxy)methyl]-4-methyl-7-oxo-4,7-dihydrothieno[3,2-b]pyridine-6-carboxamide]
163 to 164 °C	COCCOCc1c(CN(C)CC(O)c2ccc(C#N)s2)sc2c(=O)c(C(=O)NCc3ccc(Cl)cc3)cn(C)c12 (stereo not drawn) [Example 80, N-(4-Chlorobenzyl)-2-{[[2-(5-cyanothien-2-yl)-2-hydroxyethyl](methyl)amino]methyl}-3-[(2-methoxyethoxy)methyl]-4-methyl-7-oxo-4,7-dihydrothieno[3,2-b]pyridine-6-carboxamide]
125 to 127 °C	C=CCOCc1c(CN(C)C[C@@H](O)c2ccccn2)sc2c(=O)c(C(=O)NCc3ccc(Cl)cc3)cn(C)c12 [Example 81, 3-[(Allyloxy)methyl]-N-(4-chlorobenzyl)-2-{[[(2R)-2-hydroxy-2-pyridin-2-ylethyl](methyl)amino]methyl}-4-methyl-7-oxo-4,7-dihydrothieno[3,2-b]pyridine-6-carboxamide]
211 to 213 °C	CN(Cc1sc2c(=O)c(C(=O)NCc3ccc(Cl)cc3)cn(C)c2c1CO)CC(O)c1cnccn1 (stereo not drawn) [Example 84, N-(4-Chlorobenzyl)-3-(hydroxymethyl)-2-{[(2-hydroxy-2-pyrazin-2-ylethyl)(methyl)amino]methyl}-4-methyl-7-oxo-4,7-dihydrothieno[3,2-b]pyridine-6-carboxamide]
188 to 190 °C	CN(Cc1sc2c(=O)c(C(=O)NCc3ccc(Cl)cc3)cn(C)c2c1CO)CC(O)c1ccc(C#N)s1 (stereo not drawn) [Example 85, N-(4-Chlorobenzyl)-2-{[[2-(5-cyanothien-2-yl)-2-hydroxyethyl](methyl)amino]methyl}-3-(hydroxymethyl)-4-methyl-7-oxo-4,7-dihydrothieno[3,2-b]pyridine-6-carboxamide]
165 to 168 °C	COc1cccc(C(O)CN(C)Cc2sc3c(=O)c(C(=O)NCc4ccc(Cl)cc4)cn(C)c3c2CO)c1 (stereo not drawn) [Example 86, N-(4-Chlorobenzyl)-2-{[[2-hydroxy-2-(3-methoxyphenyl)ethyl](methyl)amino]methyl}-3-(hydroxymethyl)-4-methyl-7-oxo-4,7-dihydrothieno[3,2-b]pyridine-6-carboxamide]
196 to 198 °C	CN(Cc1sc2c(=O)c(C(=O)NCc3ccc(Cl)cc3)cn(C)c2c1CO)CC(O)c1ccc2ccccc2n1 (stereo not drawn) [Example 89, N-(4-Chlorobenzyl)-3-(hydroxymethyl)-2-{[(2-hydroxy-2-quinolin-2-ylethyl)(methyl)amino]methyl}-4-methyl-7-oxo-4,7-dihydrothieno[3,2-b]pyridine-6-carboxamide]
144 to 148 °C	CN(Cc1sc2c(=O)c(C(=O)NCc3ccc(Cl)cc3)cn(C)c2c1CN)C[C@@H](O)c1ccccn1 [Example 91, 3-(Aminomethyl)-N-(4-chlorobenzyl)-2-{[[(2R)-2-hydroxy-2-pyridin-2-ylethyl](methyl)amino]methyl}-4-methyl-7-oxo-4,7-dihydrothieno[3,2-b]pyridine-6-carboxamide]
171 to 177 °C (dec.)	CN(Cc1sc2c(=O)c(C(=O)NCc3ccc(Cl)cc3)cn(C)c2c1CNS(C)(=O)=O)C[C@@H](O)c1ccccn1 [Example 92, N-(4-Chlorobenzyl)-2-{[[(2R)-2-hydroxy-2-pyridin-2-ylethyl](methyl)amino]methyl}-4-methyl-3-{[(methylsulfonyl)amino]methyl}-7oxo-4,7-dihydrothieno[3,2-b]pyridine-6-carboxamide]
